Entries after “also recorded” stand apart in the source; their conditions may differ. Like-named read-outs stand apart in the source and are kept apart here. Starred links: 1 amine or outer side, 2 acyl side, 3 side chain; linkers in the order of their positions; H or OH if unused. Positions of bridges follow the written chain, without caps; N, C: chain ends. Non-standard residues stand in square brackets, D forms with d. Residues, ends and D or L forms follow the SMILES beside them. Chains are numbered I, II in the order given. Actinocin(9to1) = Cc1c2oc3c(C)ccc(C(=O)[*:1])c3nc-2c(C(=O)[*:2])c(N)c1=O; NMeV = CN[C@H](C(=O)O)C(C)C; Sar = CNCC(=O)O
What was measured:
[1] = test system: VSV-GFP or SeV-GFP; type: cell-based, vesicular stomatitis virus; Sendai virus
[2] = test system: Vero, HepG2, MDCK and other cell lines; conditions: cited from earlier work
[3] = test system: RBV uptake; type: cell-based
[4] = test system: VSV-GFP; test: microbe, parasite or virus in culture; type: cell-based; conditions: Vesicular stomatitis virus; for IC50: read-out: IC50 VSV-GFP; for IC90: read-out: IC90 VSV-GFP
[5] = test system: SeV-GFP; test: microbe, parasite or virus in culture; type: cell-based, Sendai virus; conditions: Respirovirus muris; for IC50: read-out: IC50 SeV-GFP; for IC90: read-out: IC90 SeV-GFP
[6] = test system: VSV-GFP; type: cell-based, vesicular stomatitis virus
[7] = test system: SeV-GFP; type: cell-based, Sendai virus
[8] = test system: BHK21, BSRT7, HeLa, A549, 4T1, HEp2 and Vero cells
[9] = test system: canine distemper virus; conditions: Vero cells; cited from earlier work
[10] = test system: BHK21, BSRT7, HeLa, A549, 4T1, HEp2 and Vero cells; test: Cell viability assays (MTT, CellTiter-Glo, trypan blue dye exclusion); conditions: RBV up to 1000 µM, 24 h, all seven cell lines
[11] = test system: VSV-GFP or SeV-GFP; type: cell-based, vesicular stomatitis virus; Sendai virus; remark: listed apart in the source

Structure (SMILES): Nc1nc2c(ncn2[C@@H]2O[C@H](CO)[C@@H](O)[C@H]2O)c(=O)[nH]1 [guanosine]
- Effect on virus replication when used alone [1]: no significant effect on virus replication
- Neutralizing effect on antiviral activity of RBV [1]: clear (almost 100%) neutralizing effect on RBV
- Excess of physiological GTP levels [2]: at least 4 fold

Structure (SMILES): O=[N+]([O-])c1ccc(CSc2ncnc3c2ncn3[C@@H]2O[C@H](CO)[C@@H](O)[C@H]2O)cc1 [NBMPR, S-(4-Nitrobenzyl)-6-thioinosine]
- Effect on RBV uptake [3]: RBV uptake was inhibited in most cell lines

Structure (SMILES): NC(=O)c1ncn([C@@H]2O[C@H](CO)[C@@H](O)[C@H]2O)n1 [RBV, 1-ß-D-ribofuranosyl-1,2,4-triazole-3-carboxamide]
- IC50 ([4]; 4T1, 24 h): 20 µM
- IC90 ([4]; 4T1, 24 h): 60 µM
- IC50 ([4]; A549, 24 h): 190 µM
- IC90 ([4]; A549, 24 h): 610 µM
- IC50 ([4]; BHK-21, 24 h): 275 µM
- IC90 ([4]; BHK-21, 24 h): 1100 µM
- IC50 ([4]; BSR-T7, 24 h): 10 µM
- IC90 ([4]; BSR-T7, 24 h): 40 µM
- IC50 ([4]; HEp-2, 24 h): 70 µM
- IC90 ([4]; HEp-2, 24 h): 310 µM
- IC50 ([4]; HeLa, 24 h): 70 µM
- IC90 ([4]; HeLa, 24 h): 150 µM
- IC50 ([4]; Vero, 24 h): 2250 µM
- IC90 ([4]; Vero, 24 h): > 3000 µM
- IC50 ([5]; 4T1, 48 h): 10 µM
- IC90 ([5]; 4T1, 48 h): 18 µM
- IC50 ([5]; A549, 48 h): 90 µM
- IC90 ([5]; A549, 48 h): 320 µM
- IC50 ([5]; BHK-21, 48 h): 190 µM
- IC90 ([5]; BHK-21, 48 h): 850 µM
- IC50 ([5]; BSR-T7, 48 h): 16 µM
- IC90 ([5]; BSR-T7, 48 h): 40 µM
- IC50 ([5]; HEp-2, 48 h): 12 µM
- IC90 ([5]; HEp-2, 48 h): 45 µM
- IC50 ([5]; HeLa, 48 h): 40 µM
- IC90 ([5]; HeLa, 48 h): 110 µM
- IC50 ([5]; Vero, 48 h): 1550 µM
- IC90 ([5]; Vero, 48 h): > 3000 µM
- Effect on VSV replication (GFP expression) [6]: effectively inhibited VSV
- Effect on VSV-driven GFP expression [6]: surprisingly mild effect; also recorded: somewhat intermediate effect
- Effect on SeV replication compared with VSV [7]: inhibited SeV replication to a greater degree than VSV
- Long-term accumulation of RBV [8]: markedly decreased levels of RBV accumulation
- Short-term RBV uptake [8]: somewhat similar levels of RBV import
- IC50 [9]: 20 to 50 µM
- IC80 [9]: 40 to 110 µM
- Effect on cell viability (cellular toxicity) [10]: did not produce any statistically significant decrease in cell viability; also recorded: did not produce any significant cytotoxicity

Structure (SMILES): Cc1c2oc3c(C)ccc(C(=O)N[C@@H]4C(=O)N[C@H](C(C)C)C(=O)N5CCC[C@H]5C(=O)N(C)CC(=O)N(C)[C@@H](C(C)C)C(=O)O[C@@H]4C)c3nc-2c(C(=O)N[C@@H]2C(=O)N[C@H](C(C)C)C(=O)N3CCC[C@H]3C(=O)N(C)CC(=O)N(C)[C@@H](C(C)C)C(=O)O[C@@H]2C)c(N)c1=O [ActD, actinomycin D] (I: T[dV]P[Sar][NMeV] / II: T[dV]P[Sar][NMeV]; ester I:1-I:C, II:1-II:C; linker I:N-II:N via Actinocin(9to1))
- Effect on RBV uptake [3]: did not inhibit RBV uptake
- Effect on viral replication when used alone [11]: somewhat mild effect on viral replication
- Neutralizing effect on antiviral activity of RBV [11]: clear neutralizing effect on RBV
